Measured values reported in PubChem BioAssay (NCI).
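Exposure lasted 48 hours, with cells grown in 96-well plates and compounds tested at five concentrations. At the GI50, growth is halved. TGI: total growth inhibition.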

Experiments:
Assay in all cases: NCI-60 cell line screen, 48 h
TK-10 renal = system: TK-10 renal
MALME-3M melanoma = system: MALME-3M melanoma
UO-31 renal = system: UO-31 renal
K-562 leukemia = system: K-562 leukemia
A498 renal = system: A498 renal
NCI-H460 lung = system: NCI-H460 lung
HCT-116 colon = system: HCT-116 colon
HOP-62 NSCLC = system: HOP-62 NSCLC
PC-3 prostate = system: PC-3 prostate
MDA-MB-231 breast = system: MDA-MB-231 breast

Structure (SMILES)	TGI (TK-10 renal) [µM]	TGI (MALME-3M melanoma) [µM]	TGI (UO-31 renal) [µM]	TGI (K-562 leukemia) [µM]	TGI (A498 renal) [µM]	TGI (NCI-H460 lung) [µM]	TGI (HCT-116 colon) [µM]	TGI (HOP-62 NSCLC) [µM]	TGI (PC-3 prostate) [µM]	GI50 (TK-10 renal) [µM]	GI50 (UO-31 renal) [µM]	GI50 (K-562 leukemia) [µM]	GI50 (A498 renal) [µM]	GI50 (NCI-H460 lung) [µM]	GI50 (HCT-116 colon) [µM]	GI50 (MDA-MB-231 breast) [nM]	TGI (MDA-MB-231 breast) [µM]	GI50 (HOP-62 NSCLC) [µM]	GI50 (MALME-3M melanoma) [µM]	GI50 (PC-3 prostate) [µM]
CC1=C(C(=O)Nc2ccccc2C)C(c2ccccc2O)C(C(=O)Nc2ccccc2C)=C(C)N1	86	92.4	38.4	> 100	64.8	31.1	36.9	45.8	–	–	–	–	–	–	–	–	–	–	–	–
C[C@H]1[C@H](C)CC[C@]2(C(=O)O)CCC3(COC(=O)/C=C/c4ccc(O)cc4)C(=CCC4[C@@]5(C)CC[C@H](O)C(C)(C)C5CC[C@]43C)[C@H]12 (some centres undefined)	22.3	37.2	15.6	20.9	15.3	11.2	14.2	23	–	–	–	–	–	–	–	–	–	–	–	–
Cc1cc(=O)n2c(cc3cccccc32)n1	> 100	–	> 100	> 100	> 100	> 100	–	> 100	–	–	–	–	–	–	–	–	–	–	–	–
CC(/C=C1\CCC(CN(C)C)C1=O)c1cccc(Br)c1 (centres undefined)	30.6	32.4	33.2	9.43	> 58.5	> 70.2	31	42.2	–	–	–	–	–	–	–	–	–	–	–	–
Cc1ccc(-c2nc3ccccc3c(=O)n2NC2OC(CO)C(O)C(O)C2O)cc1 (centres undefined)	> 100	> 100	> 100	> 100	> 100	> 100	> 100	> 100	–	–	–	–	–	–	–	–	–	–	–	–
CCCc1nn(C)c(CCC(=O)N(Cc2ccccc2)Cc2ccccc2)c1CC	> 100	> 100	> 100	–	> 100	> 100	> 100	> 100	–	–	–	–	–	–	–	–	–	–	–	–
O=C(CC1(O)C(=O)Nc2c(Cl)cc(Cl)cc21)c1ccc([N+](=O)[O-])cc1 (centres undefined)	> 100	> 60.7	35.1	> 100	> 67.9	> 100	> 59.2	> 100	–	–	–	–	–	–	–	–	–	–	–	–
C=C(C)C1CC=C(C)C(O)([C@@]2(O)C[C@H](C(=C)C)CC=C2C)C1 (some centres undefined)	> 100	81.8	55.9	49.4	58.2	34.6	40.1	35	–	–	–	–	–	–	–	–	–	–	–	–
COC(=O)/C(=N\Nc1nc(=S)[nH]n1N)C(C#N)c1ccc(Cl)cc1 (centres undefined)	> 100	> 100	> 100	–	> 100	> 100	> 100	> 100	–	–	–	–	–	–	–	–	–	–	–	–
Nc1nc(N)c(CCCCc2ccccc2)c(/C=C/c2ccc([N+](=O)[O-])cc2)n1	6.72	9.17	8.51	–	–	39.5	6.52	12.4	–	–	–	–	–	–	–	–	–	–	–	–
CC(C)c1ccc(C(O)(C(=O)O)c2ccc(C(C)C)cc2)cc1	> 100	> 100	> 100	> 100	> 100	> 100	> 100	> 100	51.1	–	–	–	–	–	–	–	–	–	–	–
COc1cc2c(cc1OC)-c1c(c3ccc([N+](=O)[O-])cc3c(=O)n1CCCN=[N+]=[N-])C2=O	> 100	–	> 100	> 100	> 100	> 100	> 100	> 100	–	> 100	42.4	19.6	40.7	11.4	31.5	> 100000	> 100	29.8	–	–
CC(=O)CCn1[nH]c(=O)c(Cl)c(Cl)c1=O	> 100	> 100	> 100	> 100	> 100	> 100	> 100	> 100	–	–	–	–	–	–	–	–	–	–	–	–
Oc1ccccc1/C=N\Nc1ccccc1	> 100	21.7	36.3	–	–	> 100	> 100	> 100	> 100	24.9	2.35	–	–	3.36	7.22	553	22.7	21.9	3.72	9.32
CC1(C)C2=CCCC(=O)[C@@]2(C)CC[C@@H]1O	> 100	–	> 100	> 100	–	> 100	> 100	> 100	–	–	–	–	–	–	–	–	–	–	–	–
CCCCCC1CC=CC(NC(=O)OCc2ccccc2)C1/C=C/CCCC1OCCO1 (centres undefined)	> 100	> 100	72.2	> 100	98.7	> 100	> 100	> 100	–	–	–	–	–	–	–	–	–	–	–	–
CC1(C)C=C(N2CCN(C3=CC(C)(C)NC(C)(C)C3)CC2)CC(C)(C)N1	> 100	–	> 100	> 100	> 100	> 100	> 100	> 100	–	–	–	–	–	–	–	–	–	–	–	–
